The results in this text go back to patent US20150045387A1, “Bi-Aromatic And Tri-Aromatic Compounds As NADPH Oxidase 2 (Nox2) Inhibitors” (The University of Surrey, priority 2011, published 2015).

For data set [1], the system named is human liver hepatocyte cells (HepG2). In words: cell viability by trypan blue exclusion and viable cell number counting, HepG2. The data set is classed as cell-based. Conditions: HepG2, LMH001 5 and 10 μM, 24 h, trypan blue exclusion. As for the experimental part:
FIG. 7 is a graph showing no cytotoxicity of LMH001 on living mouse microvascular endothelial cells (SVEC4-10) and human liver hepatocyte cells (HepG2), assessed by trypan blue exclusion and viable cell number counting. Cells were cultured with LMH001 (5 and 10 μM) for 24 h. Cell viabilities of SVEC4-10 cells and HepG2 cells in the presence of LMH001 (5 and 10 μM) were expressed as % of alive cells compared to cells in the absence of LMH001 (control, 100%). Results are presented as mean±SD (n=3).
HepG2 is a human hepatocytic cell line (ATCC No. HB-8065) that was originally derived from liver tissue with a well differentiated hepatocellular carcinoma. HepG2 cells have been proven to be a suitable in vitro model system for the study of human hepatocytes, and the study of liver metabolism and toxicity. […]
Cell viability and membrane integrity in the presence and absence of LMH001 were assessed using the trypan blue exclusion assay as described previously (15). […] At the time of experiment, cells were harvested by 0.25% Trypsin/EDTA, pelleted, resuspended in serum free medium and counted using a haemocytometer in the presence of trypan blue (0.4%) solution. The number of viable cells was calculated as a percentage of total cells.

The test system of data set [2] is human liver hepatocyte cells (HepG2 cells). In words: MTT assay for cytotoxicity, HepG2. The data set is classed as cell-based. Conditions: HepG2, LMH001 5 and 10 μM, 24 h. As for the experimental part: FIG. 8 is a graph showing no cytotoxicity of LMH001 on living mouse microvascular endothelial cells (SVEC4-10 cells) and human liver hepatocyte cells (HepG2 cells), assessed by means of an MTT assay. Cells were cultured with LMH001 (5 and 10 μM) for 24 h. MTT is a yellow tetrazolium reagent which can be converted by living cells to insoluble blue formazan crystal in the medium. The insoluble blue formazan crystals were then dissolved in DMSO and measured for absorbance at 570 nm by a plate reader. Higher absorbance corresponds to more living cells. Results are presented as mean±SD (n=3).
HepG2 is a human hepatocytic cell line (ATCC No. HB-8065) that was originally derived from liver tissue with a well differentiated hepatocellular carcinoma. HepG2 cells have been proven to be a suitable in vitro model system for the study of human hepatocytes, and the study of liver metabolism and toxicity. HepG2 cells were grown in DMEM, containing 10% (v/v) heat inactivated foetal calf serum, 100 U/mL penicillin and […] streptomycin, in a humidified atmosphere at 37° C. with 5% CO2.
The potential cytotoxicity of LMH001 on cultured endothelial cells (SVEC4-10) and liver cells (HepG2) was assessed using the MIT assay as described previously (16). […] Absorbance was measured at 570 nm in an ELISA plate reader and the mean of 3 blank readings was subtracted from each corrected value.
Background: Tetrazolium dyes change colour on reduction, which living cells bring about.

Take `O=C(OCc1cccc(O)c1O)c1ccc(O)c(CO)c1` [LMH001, (2,3,-dihydroxyphenyl)methyl 4-hydroxy-3-(hydroxymethyl)benzoate]: the “cell viability (% of alive cells vs control)” value in data set [1] is on record as “no significant difference”. In addition, the “cytotoxicity, MTT absorbance at 570 nm” value in data set [2] is given as “no significant difference”.
